From publication PMC6698794, “Catalytic Knockdown of miR-21 by Artificial Ribonuclease: Biological Performance in Tumor Model” (Frontiers in Pharmacology, 2019)
One block for each substance: values may come before it.

Experiments:
B16 melanoma cells = assay: Annexin V-FITC/PI apoptosis assay; type: cell-based, mouse
Procedure: B16 cells were pre-seeded (2 × 10^5 per well of 24-well plates) in DMEM/10% FBS a day before transfection. Medium was replaced with serum-free DMEM, prior to incubation for 4 h with h-ODN, 2′-OMe, Inh (hsa-miR-21 5 p inhibitor, Ambion, USA), miR-21-miRNase, or luc-POC, each (0.1 or 1 µM) pre-complexed with Lipofectamine (Thermo Fisher Scientific, USA) in Opti-MEM medium (Thermo Fisher Scientific, USA) according to manufacturer’s instructions, then cells were cultivated in fresh culture standard medium for 24–72 h.
At 24, 48, and 72 h after transfection, cells were harvested, washed twice with PBS, resuspended in Binding Buffer to a density of 2–5 × 10^5/ml, and incubated with annexin V-FITC and propidium iodide (PI) (ab14085, Abcam, UK) in the dark at room temperature for 15 min, prior to flow cytometry analysis (Novocyte CEA Biosciences, USA).
Figure 2 Biological effect of the miR-21-specific miRNase. (A) Apoptotic profile of B16 melanoma cells after transfection with miR-21-miRNase and control luc-POC. Cytofluorimetric analysis of cells after staining with Annexin V-FITC/PI 48 h after transfection with miRNase or luc-POC (1 µM) in complex with Lipofectamine2000. Q1—population of living cells; Q2—Annexin V-FITC+/PI-, early apoptosis; Q3—Annexin V-FITC+/PI+, late apoptosis; Q4—Annexin V-FITC-/PI+, necrosis. (B) Average percentage of apoptotic (early and late apoptosis) and necrotic B16 cell population. Data represent mean ± s.e. of four independent experiments.(C, D) Invasion activity of B16 cells after incubation with Lipofectamine (LF) alone or treated with either hairpin antisense oligonucleotide (h-ODN), hairpin 2′-OMe oligonucleotide (2′-OMe), commercial miR-21 inhibitor (Inh), miR-21-miRNase, and control conjugate (luc-POC) in the concentration of 1 µM. Migration of cells was recorded in real time using the xCELLigence cell analysis system. Control—B16 cells without treatment. Data represent mean ± s.d. of four independent experiments.

miR-21 = assay: Cleavage of 5′-[32P]-labeled miR-21 by miR-21-miRNase and/or RNase H in multiple turnover conditions; type: biochemical; conditions: for Level of cleavage of miR-21 by miRNase alone: 5- or 10-fold excess of target; for Level of cleavage of miR-21 by miRNase alone / τ/2, half-life time of miR-21: miRNase 5 µM, 37°C
Procedure: Unlabeled miR-21 (10 µM, 25 µM, or 50 µM) and 10^5 cpm (Cherenkov’s counting) of [^32P]-miR-21 was incubated at 37°C with either miR-21-miRNase (5 µM) or RNase H (100 U/ml, plus 5 µM of either h-ODN or miR-21-miRNase) in buffer (20 mM Tris-HCl, pH 7.8, 40 mM KCl, 8 mM MgCl2, 1 mM DTT). Reactions were quenched by precipitation of RNA with 2% LiClO4 in acetone, and RNA cleavage products quantified in dried gels as described previously ([Patutina et al., 2017a]) using Molecular Imager FX and Quantity One software.
Figure 4 Cleavage of 5’-[^32P]-labeled miR-21 by miR-21-miRNase and/or RNase H. Autoradiographs of 18% polyacrylamide/8 M urea gel, showing the patterns of cleavage of miR-21 at its 2- (A), 5- (C), and 10-fold (E) molar excess over miR-21-miRNase or h-ODN. […] Duplexes formed by 5′-[^32P]-miR-21 (10, 25, and 50 µM) and h-ODN or miRNase (5 µM) were incubated at 37°C for 24–72 h. Lanes Im and T1: imidazole ladder and partial RNA digestion with RNase T1, respectively; “control”: RNA was incubated in the absence of oligonucleotide or conjugate and in the presence of RNase H (100 U/ml). Diagrams (B), (D), and (F) show time dependency of cleavage of miR-21 by miR-21-miRNase alone, by a synergetic action of miR-21-miRNase and RNase H, or by RNase H (100 U/ml) alone when miR-21 was in a complex with h-ODN at 2-, 5- and 10-fold molar excess of miR-21 over miR-21-miRNase or h-ODN, respectively. (G) Positions of miR-21 cleavage induced by miR-21-miRNase (red arrows), RNase H in the duplex with h-ODN (black arrows), and by combination of miR-21-miRNase and RNase H. (H) The hypothetical representation of miR-21 cleavage by a combination of miRNase and RNase H.

PTEN = PTEN protein level in transfected RLS40 cells by Western blot; type: cell-based, mouse; conditions: 1 µM, 72 h after transfection, GAPDH internal control
Procedure: RLS40 ascites were taken from CBA mice intraperitoneally injected with tumor cells (2 × 10^6 in 0.2 ml buffered saline) into their abdominal cavities. RLS40 cells, isolated from ascites fluid by filtration through LSM were divided into seven portions: 1) untreated cells; 2) the cells incubated with Lipofectamine; the cells transfected with 1 µM of 3) h-ODN, 4) 2′-OMe, 5) Inh, 6) miR-21-miRNase, or 7) luc-POC each. After 4 h of transfection, cell suspensions (0.1 ml, 2 × 10^6 cells) were intramuscularly inoculated into the right lower limb of CBA mice for solid tumor development. As soon as tumors began to be palpable, the tumor volumes were measured every 2–3 days using calipers. Tumor volumes were calculated as V = (π/6 × length × width × height). Hepatic index was estimated as (liver weight/mouse weight) × 100% and as 5.0% for healthy CBA mice. Tumor doubling time (DT) was estimated as DT = (t − t0) × ln 2/(ln V − ln V0), where (t − t0) indicates the length of time between two measurements of tumor size and V0 and V denote the tumor volume at two points of the measurement ([Ozono et al., 2004]).
Supplementary Figure 3. Expression level of miR-21 and PTEN and PDCD4 protein level in RLS40 cells after transfection with 1 µM of luc-POC or miR-21-miRNase using LipofectamineTM 2000. (A) Expression level of miR-21 24 h after transfection. The expression of miRNAs was normalized to U6. […]

Factor by which RNase H elevated cleavage of miR-21 (from τ/2) (miR-21; 2-fold excess of miR-21): 14.9 times
Factor by which RNase H elevated cleavage of miR-21 (from τ/2) (miR-21; 5-fold excess of miR-21): 3.0 times
Factor by which RNase H elevated cleavage of miR-21 (from τ/2) (miR-21; 10-fold excess of miR-21): 2.4 times
Incubation time to complete (∼100%) RNA degradation (miR-21; miR-21-miRNase 5 µM with RNase H 100 U/ml, 2-fold excess of miR-21): 8 h
Incubation time to complete RNA degradation (miR-21; miR-21-miRNase 5 µM with RNase H 100 U/ml, 5-fold excess of miR-21): 24 h
Incubation time to complete RNA degradation (miR-21; miR-21-miRNase 5 µM with RNase H 100 U/ml, 10-fold excess of miR-21): ≤ 48 h
Level of cleavage of miR-21 by miRNase alone (miR-21; over 24 h, irrespective of 2-): 65–68%
Level of cleavage of miR-21 by miRNase alone (miR-21; over 72 h, 2-): 90%
τ/2, half-life time of miR-21 (miR-21; with RNase H 100 U/ml, miR-21 10 µM (2-fold RNA excess), pH 7.8): 0.7 ± 0.2 h
τ/2, half-life time of miR-21 (miR-21; with RNase H 100 U/ml, miR-21 25 µM (5-fold RNA excess), pH 7.8): 5.4 ± 0.4 h
τ/2, half-life time of miR-21 (miR-21; with RNase H 100 U/ml, miR-21 50 µM (10-fold RNA excess), pH 7.8): 4.7 ± 0.4 h
τ/2, half-life time of miR-21 (miR-21; without RNase H, miR-21 10 µM (2-fold RNA excess), Tris-HCl pH 7.8, 40 mM KCl, 8 mM MgCl2, 1 mM DTT, time for 50% cleavage): 10.4 ± 0.5 h
τ/2, half-life time of miR-21 (miR-21; without RNase H, miR-21 25 µM (5-fold RNA excess), pH 7.8): 16.2 ± 1.5 h
τ/2, half-life time of miR-21 (miR-21; without RNase H, miR-21 50 µM (10-fold RNA excess), pH 7.8): 11.04 ± 0.8 h
Substance: acetyl-[(LeuArg)2Gly]2-aminohexyl-AGTCTGATAAGCTACAAGTCAGCGAAAGCTGACTTG [miR-21-miRNase, peptide acetyl-[(LeuArg)2Gly]2 conjugated through aminohexyl linker to 5′-end of miR-21-targeted hairpin oligodeoxyribonucleotide]
Necrosis of melanoma B16 cells (Annexin V-FITC-/PI+) (B16 melanoma cells; 1 µM with Lipofectamine, 24, 48, 72 h after transfection, maximum extent, flow cytometry): up to 7%
Cells with signs of apoptosis (early and late) (B16 melanoma cells; 1 µM with Lipofectamine, 48 h after transfection (maximum), mean of four independent experiments): 28%
Apoptotic cells relative to intact B16 cells (B16 melanoma cells; 1 µM, 48 h after transfection): six
Factor by which RNase H enhanced the catalytic turnover (miR-21; 2-fold excess of miR-21): 15.6 times
Factor by which RNase H enhanced the catalytic turnover (miR-21; 5-fold excess of miR-21): 7.0 times
Factor by which RNase H enhanced the catalytic turnover (miR-21; 10-fold excess of miR-21): 4.6 times
Increase in PTEN protein level (PTEN): 1.7 fold

Substance: h-ODN: miR-21-targeted hairpin deoxyribooligonucleotide AGTCTGATAAGCTACAAGTCAGCGAAAGCTGACTTG, unconjugated with the peptide (DNA, backbone and methylation of C not given here; hairpin at 3' end, unconjugated)
Total extent of miR-21 cleavage in heteroduplex with h-ODN by RNase H alone (miR-21; RNase H 100 U/ml, h-ODN 5 µM, 2-fold excess of miR-21, plateau by 30 min): 45%
Extent of miR-21 cleavage in heteroduplex with h-ODN by RNase H alone (miR-21; RNase H 100 U/ml, h-ODN 5 µM, 5-fold excess of miR-21): about 10%
Extent of miR-21 cleavage in heteroduplex with h-ODN by RNase H alone (miR-21; RNase H 100 U/ml, h-ODN 5 µM, 10-fold excess of miR-21): ~5%
